Experiments:
[1] = Comparison of succinyl tetraphosphonate and two industrial pyrophosphates on human teeth having mature tartar; conditions: for mature tartar removal (images before and after treatment): 1 mg/ml in PBS, pH=7, 5 ml, shaken 10 min, then brushed 2 min
Experimental: The effect of succinyl tetraphosphonate and two types of industrial pyrophosphates on human teeth having mature tartar as were evaluated as followed:
Human teeth were incubated and shaken in 5 ml solution of PBS with SUTP ((a) see structure below), sodium pyrophosphate tetrabasic ((b) see structure below) and sodium pyrophosphate dibasic ((c) see structure below) (1 mg/ml, pH=7) for 10 min. Then, the teeth were brushed by a toothbrush for 2 min. Images were captured before and after treatment FIG. 6 (with SUTP), FIG. 7 (with sodium pyrophosphate tetrabasic), and FIG. 8 (with sodium pyrophosphate dibasic).

[2] = Effect of SUTP, poly(StBP) NPs and γ-Glu-BP on human teeth (incubation, brushing, overnight re-incubation); conditions: for precipitate of tartar during incubation: 1 mg/ml aqueous solution, 4 ml, pH=4, RT, after 15 min of incubation; for cleaning of teeth from tartar (photographs): 1 mg/ml, pH=4, RT 1 hr, brushing, new solution overnight, washed with DDW
Experimental: The effect of SUTP (Example 1), poly(StBP) NPs (Example 4), and γ-Glu-BP (Example 2) on human teeth was evaluated as followed:
Teeth were incubated in three separate aqueous solutions of: SUTP, poly(StBP) NPs, and γ-Glu-BP (1 mg/ml, 4 ml, pH=4) at RT for 1 hr. […] The teeth were then brushed by a toothbrush to remove the remain tartar layer on the teeth and were incubated in new solutions of SUTP, poly(StBP) NPs, and γ-Glu-BP overnight. Then, the teeth were washed by DDW and were photographed.

[3] = Effect of halamine NPs and SUTP on mature tartar removal on human teeth (10 min stirring, then brushing)
Experimental: The effect of halamines nanoparticles (as presented in Table 1) and SUTP compounds on mature tartar removal on human teeth were studied. 5 mL of each aqueous suspension were added to a 20 mL vial, and a tooth with tartar was added to each vial. Then, the solutions were stirred for 10 min at room temperature. After 10 minutes the teeth were brushed using a soft toothbrush and a photo of the tooth were taken.

O=P([O-])(O)OP(=O)([O-])O.[Na+].[Na+] [Sodium pyrophosphate dibasic, sodium pyrophosphate dibasic, reference compound]
mature tartar removal (images before and after treatment) [1]: did not remove the mature tartar

NC(CCC(O)(P(=O)(O)O)P(=O)(O)O)C(=O)O (centres unmarked) [γ-Glu-BP]
precipitate of tartar during incubation [2]: a new precipitate of tartar was observed spontaneously
cleaning of teeth from tartar (photographs) [2]: cleaning of dirty teeth from tartar

O=P([O-])([O-])OP(=O)([O-])[O-].[Na+].[Na+].[Na+].[Na+] [Sodium pyrophosphate tetrabasic, sodium pyrophosphate tetrabasic, reference compound]
mature tartar removal (images before and after treatment) [1]: did not remove the mature tartar

O=P(O)(O)C(O)(CCC(O)(P(=O)(O)O)P(=O)(O)O)P(=O)(O)O [SUTP, Succinyl tetra phosphonate]
precipitate of tartar during incubation [2]: a new precipitate of tartar was observed spontaneously
cleaning of teeth from tartar (photographs) [2]: cleaning of dirty teeth from tartar
tartar removal from tooth ([3]; 1 mg/mL, pH 3-4, 10 min stirring and brushing): partially clean
tartar removal from tooth ([3]; 1 mg/mL, pH 6-7, 10 min stirring and brushing): partially clean
tartar removal from tooth ([3]; 10 mg/mL, pH 3-4, 10 min stirring and brushing): completely clean
mature tartar removal (images before and after treatment) [1]: a significant mature tartar was removed
cloudiness of the solution after the teeth brushing (tartar removed from the teeth) ([1]; 1 mg/ml, solution captured after teeth brushing): significantly cloudier than the others

Reference: patent US12721800B2, “Phosphonates and N-halamines compositions for tartar removal” (O.Y.M. INNOVATION LTD., priority 2021, dated 2026)
